System: rat
Assay: concentration in blood after dosing
Conditions: dosed: acrylonitrile, male

C=CC#N [acrylonitrile]
inhalation, duration: 3 hr, Sprague-Dawley
Conditions	concentration in blood [ng/mL]
0.103 h, 186 ppm	329
0.1717 h, 291 ppm	588
0.1772 h, 186 ppm	250
0.1774 h, 254 ppm	263
0.2565 h, 291 ppm	287
0.2613 h, 254 ppm	235
0.2676 h, 186 ppm	115
90 s, 254 ppm	1640
94 s, 291 ppm	1960
110 s, 186 ppm	911
337 s, 291 ppm	926
345 s, 254 ppm	473

iv, Fisher 344 CDF(F344)/CrlBR
Conditions	concentration in blood [ng/mL]
0.1675 h, 84 mg/kg	28200
0.1682 h, 3.4 mg/kg	740
0.1683 h, 55 mg/kg	27200
0.1717 h, 47 mg/kg	13400
0.2068 h, 55 mg/kg	21000
0.208 h, 3.4 mg/kg	430
0.2102 h, 47 mg/kg	11800
0.2128 h, 84 mg/kg	27300
0.2495 h, 3.4 mg/kg	259
0.2506 h, 55 mg/kg	17400
0.2512 h, 84 mg/kg	22400
0.2575 h, 47 mg/kg	10900
0.5008 h, 55 mg/kg	6770
0.5014 h, 3.4 mg/kg	140
0.5026 h, 47 mg/kg	3040
0.5056 h, 84 mg/kg	11300
0.6636 h, 55 mg/kg	3100
0.6706 h, 47 mg/kg	1600
0.6711 h, 84 mg/kg	6700
0.9964 h, 55 mg/kg	393
1.005 h, 47 mg/kg	287
1.006 h, 84 mg/kg	1590
1.248 h, 55 mg/kg	396
1.25 h, 47 mg/kg	244
1.25 h, 84 mg/kg	532
182 s, 3.4 mg/kg	4950
183 s, 55 mg/kg	71400
188 s, 84 mg/kg	156000
196 s, 47 mg/kg	52800
303 s, 55 mg/kg	47200
306 s, 3.4 mg/kg	3110
307 s, 84 mg/kg	88300
309 s, 47 mg/kg	38100
